Here are results for 2 compounds from PMC8102479, “Structural and mechanistic insights into the bifunctional HISN2 enzyme catalyzing the second and third steps of histidine biosynthesis in plants” (Scientific Reports, 2021).

Assay [1] addresses T1, MtHISN2 (Medicago truncatula, UniProt A0A072U2X9, H143E).
T1 construct: gene MTR_7g084480; N-truncated at Val49 (chloroplast transit peptide removed), residues 49-283, N-terminal Ser-Asn-Ala linker left, His6-tag cleaved with TEV; E. coli BL21 Gold; both PRA-CH and PRA-PH domains
The experiment in a line: isothermal titration calorimetry. The format is binding. (In general: In ITC the heat of successive injections is recorded.)

The target of assay [2] is T2, MtHISN2 (Medicago truncatula, UniProt A0A072U2X9).
T2 construct: gene MTR_7g084480; N-truncated at Val49 (chloroplast transit peptide removed), residues 49-283, N-terminal Ser-Asn-Ala linker left, His6-tag cleaved with TEV; E. coli BL21 Gold; both PRA-CH and PRA-PH domains
The experiment in a line: ProFAR formation monitored at […] nm. The format is biochemical.

Assay [3] has as its target T2, MtHISN2. The experiment in a line: isothermal titration calorimetry. The format is binding.
The target of assay [4] is T3, MtHISN2 (Medicago truncatula, UniProt A0A072U2X9, T112V).
T3 construct: gene MTR_7g084480; N-truncated at Val49 (chloroplast transit peptide removed), residues 49-283, N-terminal Ser-Asn-Ala linker left, His6-tag cleaved with TEV; E. coli BL21 Gold; both PRA-CH and PRA-PH domains
The experiment in a line: isothermal titration calorimetry. The format is binding. The text has this: (§1) isothermal titration calorimetry on MtHISN2 | Four mutants within the PRA-CH domain (K109A, T112V, S113A, and H143E)

For assay [5], the target named is T4, MtHISN2 (Medicago truncatula, UniProt A0A072U2X9, K109A).
T4 construct: gene MTR_7g084480; N-truncated at Val49 (chloroplast transit peptide removed), residues 49-283, N-terminal Ser-Asn-Ala linker left, His6-tag cleaved with TEV; E. coli BL21 Gold; both PRA-CH and PRA-PH domains
In words: isothermal titration calorimetry. The format is binding.
Text: as §1

Assay [6] concerns the target T5, MtHISN2 (Medicago truncatula, UniProt A0A072U2X9, S113A).
T5 construct: gene MTR_7g084480; N-truncated at Val49 (chloroplast transit peptide removed), residues 49-283, N-terminal Ser-Asn-Ala linker left, His6-tag cleaved with TEV; E. coli BL21 Gold; both PRA-CH and PRA-PH domains
In words: isothermal titration calorimetry. The format is binding.
Text: as §1

The target of assay [7] is T6, MtHISN2 (Medicago truncatula, UniProt A0A072U2X9, Y240T).
T6 construct: gene MTR_7g084480; N-truncated at Val49 (chloroplast transit peptide removed), residues 49-283, N-terminal Ser-Asn-Ala linker left, His6-tag cleaved with TEV; E. coli BL21 Gold; both PRA-CH and PRA-PH domains
In words: isothermal titration calorimetry. The format is binding. On the procedure: (§2) isothermal titration calorimetry on MtHISN2 | three within the PRA-PH domain (R183E, T197V, and Y240T) were tested

In assay [8] the target is T7, MtHISN2 (Medicago truncatula, UniProt A0A072U2X9, R183E).
T7 construct: gene MTR_7g084480; N-truncated at Val49 (chloroplast transit peptide removed), residues 49-283, N-terminal Ser-Asn-Ala linker left, His6-tag cleaved with TEV; E. coli BL21 Gold; both PRA-CH and PRA-PH domains
The experiment in a line: isothermal titration calorimetry. The format is binding. Here is the method: as §2

Assay [9] has as its target T8, MtHISN2 (Medicago truncatula, UniProt A0A072U2X9, T197V).
T8 construct: gene MTR_7g084480; N-truncated at Val49 (chloroplast transit peptide removed), residues 49-283, N-terminal Ser-Asn-Ala linker left, His6-tag cleaved with TEV; E. coli BL21 Gold; both PRA-CH and PRA-PH domains
In words: isothermal titration calorimetry. The format is binding. Here is the method: as §2

Assay [10] deals with HISN2 enzyme from Medicago truncatula (MtHISN2), construct N-truncated at Val49 (Medicago truncatula). In words: SEC; HiLoad Superdex 200 16/60; 25 mM Hepes-NaOH pH 7.5, 100 mM KCl, 50 mM NaCl, 100 uM ZnCl2, 1 mM TCEP; elution profile not shown. A general note: Size exclusion chromatography separates by hydrodynamic size, large species first.

T2 sequence (A0A072U2X9 entry or part of it): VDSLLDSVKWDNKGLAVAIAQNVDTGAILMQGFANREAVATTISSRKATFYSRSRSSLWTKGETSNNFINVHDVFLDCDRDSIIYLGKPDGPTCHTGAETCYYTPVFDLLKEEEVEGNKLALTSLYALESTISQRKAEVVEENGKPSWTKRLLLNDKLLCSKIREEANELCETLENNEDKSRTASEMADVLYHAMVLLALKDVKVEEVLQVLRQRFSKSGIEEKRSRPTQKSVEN
T7 sequence (A0A072U2X9 entry or part of it R183E): as the sequence (A0A072U2X9 entry or part of it) above, with R135E counted along it
T8 sequence (A0A072U2X9 entry or part of it T197V): as the sequence (A0A072U2X9 entry or part of it) above, with T149V counted along it
T5 sequence (A0A072U2X9 entry or part of it S113A): as the sequence (A0A072U2X9 entry or part of it) above, with S65A counted along it
T3 sequence (A0A072U2X9 entry or part of it T112V): as the sequence (A0A072U2X9 entry or part of it) above, with T64V counted along it
T4 sequence (A0A072U2X9 entry or part of it K109A): as the sequence (A0A072U2X9 entry or part of it) above, with K61A counted along it
T1 sequence (A0A072U2X9 entry or part of it H143E): as the sequence (A0A072U2X9 entry or part of it) above, with H95E counted along it
T6 sequence (A0A072U2X9 entry or part of it Y240T): as the sequence (A0A072U2X9 entry or part of it) above, with Y192T counted along it

For orientation: Kd means the constant that tells how readily two partners part at equilibrium. High values mean weaker binding, low ones tighter binding. Broadly, the inhibition is the share of the control response that was lost under treatment. Lower therefore signals little suppression. For `Nc1ncnc2c1ncn2[C@@H]1O[C@H](COP(=O)(O)O)[C@@H](O)[C@H]1O` [AMP], the Kd came to 68 µM at MtHISN2 [1]; 47 ± 6 µM at MtHISN2 [3]; 75 ± 8 µM on MtHISN2 [4]; 71 ± 18 µM at MtHISN2 [5]; 64 ± 12 µM on MtHISN2 [6]; 52 ± 9 µM at MtHISN2 [7]. Besides, the Kd is 31 ± 3 µM at MtHISN2 [8] and 29 ± 3 µM at MtHISN2 [9]. On MtHISN2 [2], this compound showed an inhibition at 100 µM of over 60%.

Usually stoichiometry N stands for a count of units in the complex or per binding partner. For “HISN2 enzyme from Medicago truncatula (MtHISN2), construct N-truncated at Val49”, the stoichiometry N in assay [10] is 2.
